Results: patent EP4260865B1, “COMPOSITION COMPRISING PLANT EXTRACTS FOR TREATING HYPERCHOLESTEROLEMIA” (Anvest Group S.r.l., priority 2022, dated 2023)

Key:
[1] = target: T1, HMG CoA-reductase enzyme (Homo sapiens, UniProt P04035); experiment: HMG-CoA reductase activity in treated human liver cells (HUCPI), NADPH oxidation; type: cell-based; details: administered once in the 24-hour period, Figure 4
T1 construct: First-line human liver cells (HUCPI) were cultured and treated with some compositions; endogenous in cells; host or cells: HUCPI first-line human liver cells
T1 sequence (P04035 1-888): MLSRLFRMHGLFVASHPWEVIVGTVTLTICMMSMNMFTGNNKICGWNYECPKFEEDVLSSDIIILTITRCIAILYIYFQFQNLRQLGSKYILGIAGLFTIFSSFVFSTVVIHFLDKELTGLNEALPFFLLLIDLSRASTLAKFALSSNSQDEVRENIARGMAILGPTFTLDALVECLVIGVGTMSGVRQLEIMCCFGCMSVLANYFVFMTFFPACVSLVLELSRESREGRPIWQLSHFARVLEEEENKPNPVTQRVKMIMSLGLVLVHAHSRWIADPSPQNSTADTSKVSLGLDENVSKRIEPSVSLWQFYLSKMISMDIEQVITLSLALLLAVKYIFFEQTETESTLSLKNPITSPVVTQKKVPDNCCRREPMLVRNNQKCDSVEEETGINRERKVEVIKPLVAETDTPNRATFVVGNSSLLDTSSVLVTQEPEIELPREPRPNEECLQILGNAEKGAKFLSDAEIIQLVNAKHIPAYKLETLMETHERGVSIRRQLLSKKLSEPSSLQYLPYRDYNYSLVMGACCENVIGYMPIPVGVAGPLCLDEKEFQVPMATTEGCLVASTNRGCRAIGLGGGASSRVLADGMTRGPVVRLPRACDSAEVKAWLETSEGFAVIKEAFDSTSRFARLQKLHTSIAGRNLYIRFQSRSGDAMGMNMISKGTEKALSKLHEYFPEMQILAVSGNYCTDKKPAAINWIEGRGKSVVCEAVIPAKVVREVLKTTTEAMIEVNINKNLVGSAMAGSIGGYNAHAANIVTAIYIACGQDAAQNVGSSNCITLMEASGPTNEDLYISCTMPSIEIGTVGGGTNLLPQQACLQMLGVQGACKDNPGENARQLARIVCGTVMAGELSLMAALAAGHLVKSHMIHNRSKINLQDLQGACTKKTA
Procedure: First-line human liver cells (HUCPI) were cultured and treated with some compositions, and with atorvastatin as a control, to evaluate the inhibition capacity of the HMG CoA-reductase enzyme. The enzymatic activity of HMG-CoA reductase was evaluated by measuring the dependent oxidation of NAPDH. For each sample, the measurements were carried out at least in triplicate, and the results were reported as the average of the single values.
The HUCPI cells were treated with the composition of Example 1 and with solutions of single extracts of Policosanols, and a mixture containing Policosanols, Oleuropein and Ipomea batata, in amounts equivalent to the ingredients of the composition of Example 1. After treatment, the cells were lysed and the catalytic fragment of the protein HMGR was cloned, overexpressed, and purified.

[2] = test system: PCSK9; experiment: PCSK9 inhibition in HepG2 liver cells (mRNA levels by qRT-PCR); type: cell-based, human; details: 40 µM berberine or 40 µM equivalent berberine, compared to the control
Procedure: Immortalized HepG2 human hepatocellular carcinoma cells were cultured and then treated with berberine extract, and the composition of Example 1. After treatment, the cells were lysed and the mRNA (messenger RNA) levels for PCSK9 expression were evaluated by qRT-PCR using human-specific PCR primers. For each sample, the measurements were carried out at least in triplicate and the results were reported as the average of the single values.
The efficacy of the invention composition was tested against HepG2 immortalized human hepatocarcinoma cells. […] The inhibition of the messenger RNA (mRNA) encoding the translation of the protein PCSK9 plays a key role in the mechanisms of action aimed at maximizing the hepatic reuptake of LDL cholesterol. […]
As it is possible to see in Figure 1, the mRNA levels related to PCSK9 expression of HepG2 cells are influenced by treatment with 40 µM of berberine, showing a reduction of about 25% after 6 hours and of 40% after 24 hours, compared to the control. […] In fact, a reduction of more than 40% was recorded after 6 hours from the treatment, while at 24 hours inhibition levels equal to about 60% were detected, due to a synergistic effect also of the other components present in the mixture, capable of influencing the PCSK9-LDLR metabolic pathway.

Compound: CC(C)c1c(C(=O)Nc2ccccc2)c(-c2ccccc2)c(-c2ccc(F)cc2)n1CC[C@@H](O)C[C@@H](O)CC(=O)O [atorvastatin]
- activity of HMRG [1]: significantly reduced the activity of HMRG

Compound: COc1ccc2cc3[n+](cc2c1OC)CCc1cc2c(cc1-3)OCO2 [berberine]
- reduction of mRNA levels related to PCSK9 expression ([2]; after 6 hours): about 25%
- reduction of mRNA levels related to PCSK9 expression ([2]; after 24 hours): 40%
